Source: US8586620B2, “Substituted indole compounds having NOS inhibitory activity” (NeurAxon, Inc., priority 2005, dated 2013)
Entries after “also recorded” stand apart in the source; their conditions may differ.

Tests used:
[1] = tested on: Hippocampal slices; assay: Mitochondrial metabolic activity in hippocampal slices after OGD, TTC staining; format: cell-based, rat; conditions: 100 μM; 10 min OGD; control live normalized to 100%; n=5
Procedure: Brain injury can be measured in brain sections by incubating sections of fresh brain in 2,3,5-triphenyltetrazolium chloride (TTC). TTC, which is colorless, is reduced by mitochondrial succinate dehydrogenase in living tissue to a red formazan product. Combinations of photography or scanning and image analysis are then used to measure the area of normal (red) and damaged (uncolored) tissue at the surface of each section face and estimate the extent of damage. The TTC staining technique has been further refined by members of the Experimental Stroke Group at IBS (Study Host: University of Ottawa, Canada) using a solvent to extract the colored formazan product from tissue sections and measured it spectrophotometrically, thus obtaining a simple, objective measure of damage (Preston and Webster, J. Neurosci. Meth. 94(2):187-92, 1999). […]
(b) Preservation of Mitochondrial Metabolic Activity by compound 12 using TTC staining: Hippocampal slices exposed to 10 min OGD (control dead) retained 25±5% (n=5 groups of 4-5 slices) of the absorbance of slices not subjected to an insult (control live—normalized to 100%), whereas slices preincubated in 0.3 mM calcium 30 min prior to and during OGD retained 107±27% (n=5) of their absorbance (control protection). […]

[2] = tested on: formalin-induced hind paw licking; assay: Formalin-induced paw licking in mice; format: in vivo; conditions: intraperitoneally 30 minutes before formalin, Phase II (20 to 30 minute), FIG. 5
Procedure: Formalin Induced Hyperalgesia and Inflammation: In an experimental model of sustained inflammatory nociception associated with long term intracellular changes of nociceptive processing at the level of the spinal cord, mice or rats are subjected to a subplantar injection of formalin into a paw (Chapman et al., Brain Res. 697:258-261, 1995; Meller and Gebhart, Pain 52:127-136, 1993). Two distinct phases of spontaneous nociceptive behaviour exist: The first phase (Phase I) last about 5 minutes, followed by a second phase (Phase II), lasting approximately 40 minutes characterized by persistent shaking or licking of the injected paw (Fu et al., Neuroscience 101(4):1127-1135, 2000). Longer periods after injection of formalin results in the development of allodynia and hyperalgesia (1-4 weeks). […] Test compounds, including compound 12 and 7-NI, were dissolved in 1% DMSO/2% Tween 80/0.9% NaCl. Male or female ICR-derived mice weighing 23±2 g were housed in APEC® cages and maintained in a controlled temperature (22° C.-24° C.) and humidity (60%-80%) environment with 12 hr light-dark cycles for 1 week prior to use. Free access to standard lab chow and tap water was granted. […] The reduction of formalin-induced hind paw licking time was recorded during the following 20 to 30 minute period (Phase II).

[3] = tested on: CA1 hippocampal slices; assay: Evoked field potentials in CA1 hippocampal slices after OGD; format: cell-based, rat; conditions: slices after 10 min OGD; compound 12 50 μM, 7-NI 100 μM; FIG. 16
Procedure: Slice Preparation: Male Wistar rats, 180-200 gm, were anesthetized with halothane and decapitated. Their brains were removed and placed in artificial cerebral spinal fluid (ACSF) at 0.5° C. within 60 s of decapitation. […] Brains were hemisected and hippocampi were dissected out and sectioned into […] thick slices using a McIlwain Tissue chopper (Mickle Laboratory Engineering Co. Gomshall, GB). Sectioning was initiated approximately 1 mm from the rostral end of the hippocampus and approximately 12 slices were harvested from each hippocampus. Slices were distributed into groups in a rotational manner so that each group contained slices from all sectioned regions of the hippocampus. The hippocampal slices were placed on nylon mesh platforms in interface-type incubation chambers (6-8 slices per platform; 1 platform per chamber) for 90 min at 35° C. The ACSF in these chambers, and the atmosphere above it, was continuously gassed with 95% O2/5% CO2. […]
(a) Preservation of Evoked Field Potentials: The efficacy of synaptic transmission in these slices was evaluated using electrophysiological techniques. […] Evoked potentials (EP) were recorded in the CA1 from the stratum pyrimidale using glass micropipettes (2-5 megohms) filled with 150 mM NaCl. Population spike (PS) amplitude was measured from the peak downward deflection to the midway point between the 2 positive peaks. […]

In the case of `O=[N+]([O-])c1cccc2cn[nH]c12` [Compound 7-NI, 7-nitroindazole], the “absorbance retained (TTC staining)” value [1] is reported as 81±18%, the “formalin-induced hind paw licking” value [2] is reported as “reduction in the frequency of paw licking” and the “preservation of population spike” value [3] is reported as “did not preserve population spike; also recorded: fiber volleys, but no PSs”.
